In US10981879B2, “Thioether triazolopyridine and triazolopyrimidine inhibitors of myeloperoxidase” (BRISTOL-MYERS SQUIBB COMPANY, priority 2014, dated 2021):

Key:
[1] = biological target: T1, myeloperoxidase (MPO) (Homo sapiens (Human), UniProt P05164); experiment: MPO peroxidation assay (Amplex Red); format: biochemical; settings: Table 1
Procedure: MPO peroxidation activity was measured in 100 mM KPi (pH 7.4) by utilizing the non-fluorescent reagent Amplex Red (Invitrogen catalog #A12222) which can be oxidized to the highly fluorescent resorufin. Amplex Red is oxidized by the peroxidase action of MPO to resorufin. Reactions were carried out in 50 μL total volume by adding a 25 μL mixture of 200 pM myeloperoxidase and 40 nM H2O2 (Sigma #349887) to 100 nL inhibitor in 100% DMSO in a 384 well Perkin Elmer Optiplate. Enzyme and compound were preincubated for ten minutes at rt.
After the ten minute preincubation, 25 μL of an Amplex Red mixture containing 200 μM Amplex Red and 10 mM H2O2 was added to the plate. Kinetic determinations were carried out immediately on a Perkin Elmer Envision (15 minute kinetic read, Ex: 535 nm, Em: 590 nm).
IC50 values were calculated by determining the slope of the linear portion of the kinetic trace (180-540 secs), and using that calculated slope to determine % inhibition occurring at each concentration of inhibitor using the following equation:
[formula] where A=minimal Y value (activity level of inhibited sample), B=maximal Y value (activity level of uninhibited sample), C=Log IC50, D=Hill Slope, x=concentration of inhibitor. MPO Chlorination Assay

[2] = biological target: T1, myeloperoxidase (MPO); experiment: MPO chlorination assay (APF); format: biochemical
Outline: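 Human MPO (200 pM) with 120 mM NaCl preincubated with inhibitor 10 minutes at rt in 100 mM KPi pH 7.4. Reaction started with APF mixture containing 10 μM H2O2; fluorescein fluorescence (ex 485/em 535 nm) read kinetically 3 minutes. IC50 from slopes of linear kinetic portion, fitted with a four-parameter Hill equation.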

[3] = MPO chlorination assay (APF), Table 1, read-out: APF IC50
[4] = MPO chlorination assay, ranges given, read-out: MPO chlorination assay IC50

T1 sequence (P05164 49-745): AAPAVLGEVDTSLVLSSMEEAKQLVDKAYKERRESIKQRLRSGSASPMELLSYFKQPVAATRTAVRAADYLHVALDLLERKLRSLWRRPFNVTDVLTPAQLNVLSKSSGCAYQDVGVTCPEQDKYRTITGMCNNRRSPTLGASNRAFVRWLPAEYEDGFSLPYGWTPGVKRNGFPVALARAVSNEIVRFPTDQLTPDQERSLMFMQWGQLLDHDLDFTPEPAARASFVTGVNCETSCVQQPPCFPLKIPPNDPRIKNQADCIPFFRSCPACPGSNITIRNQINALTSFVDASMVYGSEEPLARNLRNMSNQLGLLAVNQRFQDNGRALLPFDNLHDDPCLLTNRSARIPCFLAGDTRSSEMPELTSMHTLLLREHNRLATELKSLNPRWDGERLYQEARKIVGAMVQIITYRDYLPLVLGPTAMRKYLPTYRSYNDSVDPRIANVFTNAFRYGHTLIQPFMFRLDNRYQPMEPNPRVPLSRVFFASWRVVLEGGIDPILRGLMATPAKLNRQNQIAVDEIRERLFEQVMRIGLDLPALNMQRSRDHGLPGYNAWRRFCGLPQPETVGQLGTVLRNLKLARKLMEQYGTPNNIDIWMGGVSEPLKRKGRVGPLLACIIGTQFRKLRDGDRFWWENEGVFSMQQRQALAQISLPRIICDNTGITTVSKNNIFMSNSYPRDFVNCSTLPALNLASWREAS

IC50 [1]	IC50 [2, 3]	IC50 [2, 4]	Structure (SMILES)	IC50 [2]
10 nM	20 nM	–	Nc1cc(SCc2cc(C(F)(F)F)ccc2C(F)(F)F)c2nn[nH]c2n1 [Example 39, 7-((2,5-bis(trifluoromethyl)benzyl)thio)-3H-[1,2,3] triazolo[4,5-b]pyridin-5-amine]	–
20 nM	80 nM	–	Nc1cc(SCc2ccccc2-n2cccn2)c2nn[nH]c2n1 [Example 41, 7-((2-(1H-pyrazol-1-yl)benzyl)thio)-3H-[1,2,3] triazolo[4,5-b]pyridin-5-amine]	–
20 nM	80 nM	–	CCC(Sc1cc(N)nc2[nH]nnc12)c1ccccc1 (centres unmarked) [Example 45, 7-((1-phenylpropyl)thio)-3H-[1,2,3]triazolo[4,5-b] pyridin-5-amine]	–
100 nM	500 nM	–	Nc1cc(SCc2ncccn2)c2nn[nH]c2n1 [Example 57, 7-((pyrimidin-2-ylmethyl)thio)-3H-[1,2,3]triazolo[4,5-b]pyridin-5-amine]	–
10 nM	20 nM	–	Nc1cc(SCc2cc(F)ccc2OC(F)(F)F)c2nn[nH]c2n1 [Example 66, 7-((5-fluoro-2-(trifluoromethoxy)benzyl)thio)-3H-[1,2,3]triazolo[4,5-b]pyridin-5-amine]	–
50 nM	760 nM	–	CCOC(=O)c1cc(CSc2cc(N)nc3[nH]nnc23)n(C)n1 [Example 70, ethyl 5-(((5-amino-3H-[1,2,3]triazolo[4,5-b]pyridin-7-yl)thio)methyl)-1-methyl-1H-pyrazole-3-carboxylate]	–
460 nM	580 nM	–	Cc1nn(-c2ccc(F)cc2)c(C)c1CSc1cc(N)nc2[nH]nnc12 [Example 72, 7-(((1-(4-fluorophenyl)-3,5-dimethyl-1H-pyrazol-4-yl)methyl)thio)-3H-[1,2,3] triazolo[4,5-b]pyridin-5-amine]	–
140 nM	610 nM	–	Cc1ncn(C)c1CSc1cc(N)nc2[nH]nnc12 [Example 77, 7-(((1,4-dimethyl-1H-imidazol-5-yl)methyl)thio)-3H-[1,2,3]triazolo[4,5-b] pyridin-5-amine]	–
30 nM	7 nM	–	Cc1nn(-c2ccccc2)c(Cl)c1CSc1cc(N)nc2[nH]nnc12 [Example 79, 7-(((5-chloro-3-methyl-1-phenyl-1H-pyrazol-4-yl)methyl)thio)-3H-[1,2,3] triazolo[4,5-b]pyridin-5-amine]	–
30 nM	9 nM	–	N#Cc1ccc(C2CC2)c(CSc2cc(N)nc3[nH]nnc23)c1 [Example 88, 3-(((5-amino-3H-[1,2,3]triazolo[4,5-b]pyridin-7-yl)thio)methyl)-4-cyclopropylbenzonitrile]	–
530 nM	640 nM	–	Nc1cc(SCc2ccccc2CN2CCC(Oc3ccccc3)C2)c2nn[nH]c2n1 (centres unmarked) [Example 98, 7-((2-((3-phenoxypyrrolidin-1-yl)methyl)benzyl)thio)-3H-[1,2,3]triazolo[4,5-b] pyridin-5-amine]	–
10 nM	90 nM	–	CS(=O)(=O)c1ccc(CSc2cc(N)nc3[nH]nnc23)c(Cl)c1 [Example 104, 7-((2-chloro-4-(methylsulfonyl)benzyl)thio)-3H-[1,2,3]triazolo[4,5-b]pyridin-5-amine]	–
20 nM	10 nM	–	Nc1cc(SCc2cn(-c3ccccc3)nc2C(F)(F)F)c2nn[nH]c2n1 [Example 113, 7-(((1-phenyl-3-(trifluoromethyl)-1H-pyrazol-4-yl)methyl)thio)-3H-[1,2,3]triazolo[4,5-b] pyridin-5-amine]	–
100 nM	530 nM	–	Nc1cc(SCc2cnn(C3CCCCC3)c2C(F)(F)F)c2nn[nH]c2n1 [Example 116, 7-(((1-cyclohexyl-5-(trifluoromethyl)-1H-pyrazol-4-yl)methyl)thio)-3H-[1,2,3]triazolo[4,5-b] pyridin-5-amine]	–
20 nM	80 nM	–	Nc1cc(SC(CO)c2ccccc2)c2nn[nH]c2n1 (centres unmarked) [Example 126, 2-((5-Amino-3H-[1,2,3]triazolo[4,5-b]pyridin-7-yl)thio)-2-phenylethanol]	–
170 nM	10 nM	–	Nc1cc(SCc2cn(-c3ccc(N4CCCC4)nc3)nc2C(F)(F)F)c2nn[nH]c2n1 [Example 139]	–

IC50 [1]	IC50 [2, 3]	IC50 [2, 4]	Structure (SMILES)	IC50 [2]
40 nM	80 nM	–	Nc1cc(SCc2cn(-c3cccnn3)nc2C(F)F)c2nn[nH]c2n1 [Example 144]	–
–	–	–	Nc1cc(SCc2cn(-c3cnccn3)nc2C(F)F)c2nn[nH]c2n1 [Example 152, 7-(((3-(difluoromethyl)-1-(pyrazin-2-yl)-1H-pyrazol-4-yl)methyl)thio)-3H-[1,2,3]triazolo [4,5-b]pyridin-5-amine]	200 to 1000 nM
–	–	–	Nc1cc(SCc2nn(-c3ccccc3)nc2C(F)F)c2nn[nH]c2n1 [Example 153, 7-(((5-(difluoromethyl)-2-phenyl-2H-1,2,3-triazol-4-yl)methyl)thio)-3H-[1,2,3]triazolo [4,5-b]pyridin-5-amine]	60 to 200 nM
–	–	60 to 200 nM	N#Cc1cccc(F)c1CSc1nc(N)nc2[nH]nnc12 [Example 154, 2-(((5-Amino-3H-[1,2,3]triazolo[4,5-d]pyrimidin-7-yl)thio)methyl)-3-fluorobenzonitrile]	–
–	–	60 to 200 nM	Nc1nc(SCc2ccccc2)c2nn[nH]c2n1 [Example 155, 7-(benzylthio)-3H-[1,2,3] triazolo[4,5-d]pyrimidin-5-amine]	–
–	–	60 to 200 nM	Cc1nn(-c2ccccc2)c(Cl)c1CSc1nc(N)nc2[nH]nnc12 [Example 156, 7-(((5-chloro-3-methyl-1-phenyl-1H-pyrazol-4-yl)methyl)thio)-3H-[1,2,3] triazolo[4,5-b]pyrimidin-5-amine]	–
–	–	200 to 1000 nM	N#Cc1ccc(F)cc1CSc1nc(N)nc2[nH]nnc12 [Example 157, 2-(((5-amino-3H-[1,2,3]triazolo[4,5-d]pyrimidin-7-yl)thio)methyl)-4-fluorobenzonitrile]	–
–	–	200 to 1000 nM	Nc1nc(SCc2ccccc2-n2cccn2)c2nn[nH]c2n1 [Example 158, 7-((2-(1H-pyrazol-1-yl)benzyl)thio)-3H-[1,2,3] triazolo[4,5-d]pyrimidin-5-amine]	–
–	–	200 to 1000 nM	Cc1nn(Cc2ccccc2)c(Cl)c1CSc1nc(N)nc2[nH]nnc12 [Example 159, 7-(((1-benzyl-5-chloro-3-methyl-1H-pyrazol-4-yl)methyl)thio)-3H-[1,2,3] triazolo[4,5-d]pyrimidin-5-amine]	–
–	–	200 to 1000 nM	Cn1nc(C(F)(F)F)c(CSc2nc(N)nc3[nH]nnc23)c1F [Example 160, 7-(((5-fluoro-1-methyl-3-(trifluoromethyl)-1H-pyrazol-4-yl)methyl)thio)-3H-[1,2,3]triazolo[4,5-d] pyrimidin-5-amine]	–
–	–	200 to 1000 nM	N#Cc1ccc(C2CC2)c(CSc2nc(N)nc3[nH]nnc23)c1 [Example 161, 3-(((5-amino-3H-[1,2,3]triazolo[4,5-d]pyrimidin-7-yl)thio)methyl)-4-cyclopropylbenzonitrile]	–
–	–	200 to 1000 nM	Cn1ncc2c(CSc3nc(N)nc4[nH]nnc34)cccc21 [Example 162, 7-(((1-methyl-1H-indazol-4-yl)methyl)thio)-3H-[1,2,3]triazolo[4,5-d] pyrimidin-5-amine]	–
–	–	200 to 1000 nM	Cn1ncc(CSc2nc(N)nc3[nH]nnc23)c1C(F)(F)F [Example 163, 7-(((1-methyl-5-(trifluoromethyl)-1H-pyrazol-4-yl)methyl)thio)-3H-[1,2,3]triazolo[4,5-d] pyrimidin-5-amine]	–
220 nM	770 nM	–	CCn1ncc(CSc2nc(N)nc3[nH]nnc23)c1C(F)(F)F [Example 164, 7-(((1-ethyl-5-(trifluoromethyl)-1H-pyrazol-4-yl)methyl)thio)-3H-[1,2,3]triazolo[4,5-d] pyrimidin-5-amine]	–
–	–	200 to 1000 nM	Cn1nc(C2CC2)cc1CSc1nc(N)nc2[nH]nnc12 [Example 165, 7-(((3-cyclopropyl-1-methyl-1H-pyrazol-5-yl)methyl)thio)-3H-[1,2,3] triazolo[4,5-d]pyrimidin-5-amine]	–

Structure (SMILES)	IC50 [1]	IC50 [2, 3]	IC50 [2, 4]	IC50 [2]
Nc1cc(SCc2ccccc2F)c2nn[nH]c2n1 [Example 3, 7-((2-fluorobenzyl)thio)-3H-[1,2,3]triazolo [4,5-b]pyridin-5-amine]	7 nM	10 nM	–	–
Nc1cc(SCc2cc(F)c(-c3ncon3)cc2F)c2nn[nH]c2n1 [Example 28, 7-((2,5-difluoro-4-(1,2,4-oxadiazol-3-yl)benzyl)thio)-3H-[1,2,3]triazolo[4,5-b] pyridin-5-amine]	10 nM	80 nM	–	–
Nc1cc(SCc2cn(-c3cnccn3)nc2C(F)F)c2nn[nH]c2n1 [Example 145]	30 nM	80 nM	–	–
CN(C)CCNC(=O)c1ccccc1-n1cc(CSc2cc(N)nc3[nH]nnc23)c(C(F)F)n1 [Example 151, 2-(4-(((5-amino-3H-[1,2,3]triazolo[4,5-b]pyridin-7-yl)thio)methyl)-3-(difluoromethyl)-1H-pyrazol-1-yl)-N-(2-(dimethylamino)ethyl) benzamide]	–	–	≤ 60 nM	–
